According to patent US20210137930A1, “EXPANSION OF TUMOR INFILTRATING LYMPHOCYTES (TILS) WITH ADENOSINE A2A RECEPTOR ANTAGONISTS AND THERAPEUTIC COMBINATIONS OF TILS AND ADENOSINE A2A RECEPTOR ANTAGONISTS” (Iovance Biotherapeutics, Inc., priority 2018, published 2021):

Experiments:
[1] = tested on: melanoma TILs; test: Cell counts of melanoma TILs expanded in pre-REP and REP with CPI-444; format: cell-based, human; conditions: pre-REP 11 days, melanoma tumor fragments pooled
Procedure: The expression of A2aR on TILs and the effect of an A2aR antagonist on TILs was evaluated by culturing melanoma tumor fragments or lung tumor fragments in both pre-REP and the REP phases either with or without the addition of CPI-444 (ciforadenant), an A2aR antagonist, which was obtained commercially from MedChemExpress, Inc., Monmouth Junction, N.J., USA. The experimental procedure is similar to that of Example 3 and Example 10, with the changes as described below.
Melanoma tumors and lung tumors were obtained from patients. The tumor samples were generally fragmented using sharp dissection into small pieces of about 3 mm×3 mm×3 mm. The TILs were cultured from these fragments using mechanical dissociation, using scalpel and forceps. Repeated cycles of mechanical dissociation and mixing were applied until only small tissue pieces are present. At the end of this process, the tumor fragments were placed into pre-REP culture. […]
After TIL harvesting, the TILs are phenotypically analyzed: (1) the total number of cells were counted with an automated cell counter; (2) Flow cytometry was used to determine the fraction of TILs that were CD4^+, CD8^+, within the subset of memory T-Cells, and to determine the presence/absence of A2aR and the expression level of A2aR. […]

[2] = tested on: lung TILs; test: Flow cytometry of CD8+ and CD4+ subsets, lung TILs expanded with CPI-444; format: cell-based, human; conditions: lung TIL cultures
From the text: (§1) After TIL harvesting, the TILs are phenotypically analyzed: (1) the total number of cells were counted with an automated cell counter; (2) Flow cytometry was used to determine the fraction of TILs that were CD4^+, CD8^+, within the subset of memory T-Cells, and to determine the presence/absence of A2aR and the expression level of A2aR.
(§2) FIG. 43 illustrates the results of flow cytometry analysis of CD8^+ and CD4^+ subsets for melanoma TILs obtained after the addition of the A2AR antagonist to pre-REP and REP cultures under various conditions. FIG. 44 and FIG. 45 illustrates flow cytometry analysis of CD8^+ and CD4^+ subsets for lung TILs (first and second lung tumor, respectively) obtained after the addition of CPI-444 to pre-REP and REP cultures under various conditions.

[3] = tested on: melanoma TILs; test: Flow cytometry of CD8+ and CD4+ subsets, melanoma TILs expanded with CPI-444; format: cell-based, human; conditions: melanoma TIL cultures treated with A2aR antagonist
From the text: as §1, §2

[4] = tested on: peripheral blood B cells; conditions: cynomolgus monkeys; doses from 0.001-100 mg/kg; two experiments; WO 2015/119923; cited from earlier work

Molecule	Cell Count at end or preREP Culture (Millions of Cells) ([1]; IL-2 + 12 nM CPI-444/100,000 Cells)	Cell Count at end or preREP Culture (Millions of Cells) ([1]; IL-2 + 48 nM CPI-444/100,000 Cells)	CD8+ population ([2]; at the 12 nM, 48 nM and 32 μM concentrations)	CD8+ TIL populations, response to 8 μM versus 32 μM ([2]; second tumor)	CD8+ population [3]	peripheral blood B cell numbers [4]
Cc1ccc(-c2nc(N)nc3c2nnn3Cc2cccc(CO[C@H]3CCOC3)n2)o1 [CPI-444, 7-(5-methylfuran-2-yl)-3-[[6-[[(3S)-oxolan-3-yl]oxymethyl]pyridin-2-yl]methyl]triazolo[4,5-d]pyrimidin-5-amine]	8.7 Millions of Cells	12.8 Millions of Cells	increase	modulated differently	decrease	
PF-05082566: fully human immunoglobulin G2-lambda anti-4-1BB (CD137) agonist monoclonal antibody, Pfizer; SEQ ID NO:11 and 12						either unchanged or decreased
